This test deals with T1, Recombinant human liver GK1 (GST-GK) (Homo sapiens, UniProt P35557).
T1 construct: made in house; host or cells: E. coli
T1 sequence (P35557 1-466 isoform P35557-2): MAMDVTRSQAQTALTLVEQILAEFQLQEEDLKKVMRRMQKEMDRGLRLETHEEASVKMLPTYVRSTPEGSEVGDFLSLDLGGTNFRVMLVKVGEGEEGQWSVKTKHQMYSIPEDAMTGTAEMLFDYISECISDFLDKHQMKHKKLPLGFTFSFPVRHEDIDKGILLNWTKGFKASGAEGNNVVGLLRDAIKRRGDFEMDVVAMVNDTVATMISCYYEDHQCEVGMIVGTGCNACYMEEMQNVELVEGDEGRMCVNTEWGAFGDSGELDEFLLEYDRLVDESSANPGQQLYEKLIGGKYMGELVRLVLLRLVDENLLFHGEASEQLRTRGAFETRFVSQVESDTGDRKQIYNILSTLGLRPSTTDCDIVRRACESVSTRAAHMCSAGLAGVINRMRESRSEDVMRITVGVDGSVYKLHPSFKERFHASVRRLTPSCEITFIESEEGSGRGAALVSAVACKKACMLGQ
The experiment in a line: In vitro glucokinase activity (G6PDH-coupled NADH assay). Particulars: for SC1.5 (concentration of activator that produced a 50% increase in the activity of GK): 30° C., 5 mM D-glucose, 10% DMSO; for fold act. @ 30 μM: at 30 μM test compound. In kind it is biochemical. An outline of the steps: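 GST-tagged human liver GK1 from E. coli, assayed at 30° C in 25 mM Hepes pH 7.1 with 5 mM D-glucose, 1 mM ATP, 1.8 mM NAD and G6PDH coupling, 10% DMSO final; reaction started with enzyme after 10 min preincubation. NADH formation followed at OD340; SC1.5 is activator concentration giving 50% increase over DMSO control rate.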

The results in this text go back to patent publication US7741327B2 (Hoffmann-La Roche Inc., priority 2008, dated 2010).

SMILES strings stand for the structures.

With `O=C(Nc1ccn(C[C@@H](O)CO)n1)C(CCC(F)(F)F)N1CC(Oc2ccccc2Cl)=CC1=O` (stereo partly drawn) [Example 220, 2-[4-(2-Chloro-phenoxy)-2-oxo-2,5-dihydro-pyrrol-1-yl]-5,5,5-trifluoro-pentanoic acid [1-((R)-2,3-dihydroxy-propyl)-1H-pyrazol-3-yl]-amide], the “SC1.5 (concentration of activator that produced a 50% increase in the activity of GK)” value came to 1.8 µM.
On the same count and under the same terms, in the case of `O=C(Nc1ccn(C[C@@H](O)CO)n1)C(CC(F)F)N1CC(Oc2ccccc2Cl)=CC1=O` (stereo partly drawn) [Example 221, 2-[4-(2-Chloro-phenoxy)-2-oxo-2,5-dihydro-pyrrol-1-yl]-N-[1-((R)-2,3-dihydroxy-propyl)-1H-pyrazol-3-yl]-4,4-difluoro-butyramide] it was 17.303 µM; in that of `O=C(Nc1ccn(C[C@@H](O)CO)n1)[C@H](CCO)N1CC(Oc2ccccc2Cl)=CC1=O` [Example 222, (S)-2-[4-(2-Chloro-phenoxy)-2-oxo-2,5-dihydro-pyrrol-1-yl]-N-[1-((R)-2,3-dihydroxy-propyl)-1H-pyrazol-3-yl]-4-hydroxy-butyramide], 15.278 µM.
Take `CSCC[C@@H](C(=O)Nc1ccn(C[C@@H](O)CO)n1)N1CC(Oc2ccccc2Cl)=CC1=O` [Example 223, (S)-2-[4-(2-Chloro-phenoxy)-2-oxo-2,5-dihydro-pyrrol-1-yl]-N-[1-((R)-2,3-dihydroxy-propyl)-1H-pyrazol-3-yl]-4-methylsulfanyl-butyramide]: the “SC1.5 (concentration of activator that produced a 50% increase in the activity of GK)” value came to 0.303 µM.
As to `O=C(Nc1ccn(C[C@@H](O)CO)n1)C(CC(F)(F)F)N1CC(Oc2ccccc2Cl)=CC1=O` (stereo partly drawn) [Example 224, 2-[4-(2-Chloro-phenoxy)-2-oxo-2,5-dihydro-pyrrol-1-yl]-N-[1-((R)-2,3-dihydroxy-propyl)-1H-pyrazol-3-yl]-4,4,4-trifluoro-butyramide], the “SC1.5 (concentration of activator that produced a 50% increase in the activity of GK)” value is greater than 30 µM and the “fold act. @ 30 μM” value is given as 1.4 fold.
For `CC(C)(O)Cn1ccc(NC(=O)C(Cc2c(Cl)cccc2Cl)N2CC(Oc3c(F)cccc3F)=CC2=O)n1` (stereo not drawn) [Example 225, 3-(2,6-Dichloro-phenyl)-2-[4-(2,6-difluoro-phenoxy)-2-oxo-2,5-dihydro-pyrrol-1-yl]-N-[1-(2-hydroxy-2-methyl-propyl)-1H-pyrazol-3-yl]-propionamide], the “SC1.5 (concentration of activator that produced a 50% increase in the activity of GK)” value is greater than 30 µM and the “fold act. @ 30 μM” value amounted to 1.4 fold.
On to `CC(CC(C(=O)Nc1ccn(CC(C)(C)O)n1)N1CC(Oc2ccccc2Cl)=CC1=O)C(F)(F)F` (stereo not drawn) [Example 226, 2-[4-(2-Chloro-phenoxy)-2-oxo-2,5-dihydro-pyrrol-1-yl]-5,5,5-trifluoro-4-methyl-pentanoic acid [1-(2-hydroxy-2-methyl-propyl)-1H-pyrazol-3-yl]-amide], for which the “SC1.5 (concentration of activator that produced a 50% increase in the activity of GK)” value turned out to be 0.944 µM.
Same read-out and setting: the figure for `CC(C)(C)CCC(C(=O)Nc1ccn(C[C@@H](O)CO)n1)N1CC(Oc2ccccc2Cl)=CC1=O` (stereo partly drawn) [Example 227, 2-[4-(2-Chloro-phenoxy)-2-oxo-2,5-dihydro-pyrrol-1-yl]-5,5-dimethyl-hexanoic acid [1-((R)-2,3-dihydroxy-propyl)-1H-pyrazol-3-yl]amide] is 16.668 µM; for `CC(C)(O)Cn1ccc(NC(=O)C(CC2CC3CCC2C3)N2CC(Oc3c(F)cccc3F)=CC2=O)n1` (stereo not drawn) [Example 228, 3-Bicyclo[2.2.1]hept-2-yl-2-[4-(2,6-difluoro-phenoxy)-2-oxo-2,5-dihydro-pyrrol-1-yl]-N-[1-(2-hydroxy-2-methyl-propyl)-1H-pyrazol-3-yl]-propionamide] it is 0.365 µM.
Take `CC(C)(O)Cn1ccc(NC(=O)C(CC2C3CCC2CC3)N2CC(Oc3ccccc3Cl)=CC2=O)n1` (stereo not drawn) [Example 229, 3-bicyclo[2.2.1]hept-7-yl-2-[4-(2-chloro-phenoxy)-2-oxo-2,5-dihydro-pyrrol-1-yl]-N-[1-(2-hydroxy-2-methyl-propyl)-1H-pyrazol-3-yl]-propionamide]: the “SC1.5 (concentration of activator that produced a 50% increase in the activity of GK)” value worked out at 1.109 µM.
